Several values for one entry are separate records, joined by “and”; a condition that tells them apart may be missing. Equal values may be shown once.
Tested on: WM3248 melanoma cells, 486 antibodies
Assay: Reverse phase protein arrays (RPPA)
Format: cell-based, Human
Text: Pellets were snap frozen in liquid nitrogen and shipped to MD Anderson Cancer Center core RPPA facility for RPPA analysis (Table S5). Three biological replicates for each sample were generated.
Nomenclatures on the RPPA heatmaps: name_of_antibody.species_of_antibody.status_of_antibody. V - antibody validated; C - validation of antibody in progress; Q - antibody nonspecific; E – under evaluation; antibodies raised in M - mouse, G - goat, R - rabbit, or T - rat.

[1] = level 20 normalized to 0, single replicates

CN(C)c1cccc(Nc2cc(-c3ccccc3)nc(C3CCNCC3)n2)c1 [ARN22089, N1,N1-dimethyl-N3-(6-phenyl-2-(piperidin-4-yl)pyrimidin-4-yl)benzene-1,3-diamine]
VHL.EPPK1.M.C Norm_20_1 to Norm_20_3 [1]: 0.500 and 1.345 and 0.800 | VHL.R.C Norm_20_1 to Norm_20_3 [1]: 0.916 and 0.962 and 0.841 | Vinculin.M.V Norm_20_1 to Norm_20_3 [1]: 0.883 and 0.898 and 1.015 | WIPI1.R.C Norm_20_1 to Norm_20_3 [1]: 1.294 and 1.483 and 1.388 | WIPI2.R.C Norm_20_1 to Norm_20_3 [1]: 1.222 and 0.891 and 1.265 | WTAP.R.V Norm_20_1 to Norm_20_3 [1]: 1.313 and 1.590 and 0.930 | Wee1.R.C Norm_20_1 to Norm_20_3 [1]: 0.789 and 0.790 and 1.159 | Wee1_pS642.R.C Norm_20_1 to Norm_20_3 [1]: 0.904 and 0.831 and 1.081 | XBP.1.G.C Norm_20_1 to Norm_20_3 [1]: 0.929 and 1.289 | XIAP.R.C Norm_20_1 to Norm_20_3 [1]: 0.985 and 0.834 and 1.059 | XPA.M.V Norm_20_1 to Norm_20_3 [1]: 0.800 and 0.980 and 0.934 | XPF.R.C Norm_20_1 to Norm_20_3 [1]: 0.837 and 0.882 | XRCC1.R.C Norm_20_1 to Norm_20_3 [1]: 0.881 and 1.133 | YAP.R.C Norm_20_1 to Norm_20_3 [1]: 0.917 and 1.135 and 0.817 | YAP_pS127.R.V Norm_20_1 to Norm_20_3 [1]: 1.228 and 0.736 | YB1_pS102.R.V Norm_20_1 to Norm_20_3 [1]: 0.867 | YES1.R.V Norm_20_1 to Norm_20_3 [1]: 0.976 and 0.995 | YTHDF2.R.V Norm_20_1 to Norm_20_3 [1]: 1.165 and 1.218 and 1.246 | YTHDF3.R.C Norm_20_1 to Norm_20_3 [1]: 1.003 and 1.082 and 1.010 | ZAP.70.R.V Norm_20_1 to Norm_20_3 [1]: 0.955 and 0.894 and 0.817 | ZEB1.R.V Norm_20_1 to Norm_20_3 [1]: 0.925 and 1.022 and 0.936 | HLA.DQA1.R.V Norm_20 Average (level 20 vs 0): 0.977 | HMHA1.R.V Norm_20 Average (level 20 vs 0): 1.016 | HNRNPK.R.V Norm_20 Average (level 20 vs 0): 0.991 | HSP27.M.C Norm_20 Average (level 20 vs 0): 0.811 | HSP27_pS82.R.V Norm_20 Average (level 20 vs 0): 0.961 | HSP60.R.V Norm_20 Average (level 20 vs 0): 0.996 | HSP70.R.C Norm_20 Average (level 20 vs 0): 1.202 | Hexokinase.I.R.C Norm_20 Average (level 20 vs 0): 1.201 | Hif.1αR.C Norm_20 Average (level 20 vs 0): 1.051 | Histone.H3.R.V Norm_20 Average (level 20 vs 0): 5.937 | Histone.H3_pS10.R.V Norm_20 Average (level 20 vs 0): 2.467 | IDO.R.C Norm_20 Average (level 20 vs 0): 0.964 | IGF1R_pY1135_Y1136.R.V Norm_20 Average (level 20 vs 0): 0.962 | IGFBP3.M.V Norm_20 Average (level 20 vs 0): 0.905 | IL.6.R.C Norm_20 Average (level 20 vs 0): 0.971 | IMP3.R.C Norm_20 Average (level 20 vs 0): 0.967 | INPP4b.R.C Norm_20 Average (level 20 vs 0): 0.976 | IRF.1.R.V Norm_20 Average (level 20 vs 0): 0.958 | IRF.3.R.V Norm_20 Average (level 20 vs 0): 0.882 | IRS1.R.V Norm_20 Average (level 20 vs 0): 1.050 | IRS2.R.C Norm_20 Average (level 20 vs 0): 1.223 | JAB1.M.C Norm_20 Average (level 20 vs 0): 0.970 | JNK2.R.V Norm_20 Average (level 20 vs 0): 1.099 | JNK_pT183_Y185.R.C Norm_20 Average (level 20 vs 0): 1.003 | Jagged1.R.V Norm_20 Average (level 20 vs 0): 1.028 | KAP1.R.V Norm_20 Average (level 20 vs 0): 1.259 | KEAP1.R.V Norm_20 Average (level 20 vs 0): 1.000 | LAD1.R.V Norm_20 Average (level 20 vs 0): 0.964 | LC3A.B.R.C Norm_20 Average (level 20 vs 0): 1.242 | LCN2.R.V Norm_20 Average (level 20 vs 0): 1.622 | LDHA.R.C Norm_20 Average (level 20 vs 0): 1.558 | LRP6_pS1490.R.V Norm_20 Average (level 20 vs 0): 1.024 | Lck.R.V Norm_20 Average (level 20 vs 0): 1.304 | Lyn.R.V Norm_20 Average (level 20 vs 0): 1.028 | MACC1.R.V Norm_20 Average (level 20 vs 0): 0.935 | MAPK_pT202_Y204.R.C Norm_20 Average (level 20 vs 0): 0.567 | MCT4.R.V Norm_20 Average (level 20 vs 0): 0.993 | MDM2_pS166.R.V Norm_20 Average (level 20 vs 0): 1.398 | MEK1.R.V Norm_20 Average (level 20 vs 0): 1.549 | MEK1_pS217_S221.R.V Norm_20 Average (level 20 vs 0): 0.977 | MEK2.R.V Norm_20 Average (level 20 vs 0): 1.030 | MERIT40.R.C Norm_20 Average (level 20 vs 0): 0.913 | MERIT40_pS29.R.V Norm_20 Average (level 20 vs 0): 1.026 | METTL3.R.V Norm_20 Average (level 20 vs 0): 1.246 | MIF.R.C Norm_20 Average (level 20 vs 0): 0.892 | MIG6.R.V Norm_20 Average (level 20 vs 0): 0.907 | MLH1.M.V Norm_20 Average (level 20 vs 0): 0.889 | MLKL.R.V Norm_20 Average (level 20 vs 0): 0.854 | MMP2.R.V Norm_20 Average (level 20 vs 0): 0.934 | MMP14.R.V Norm_20 Average (level 20 vs 0): 1.655 | MR1.M.C Norm_20 Average (level 20 vs 0): 0.987 | MRAP.R.C Norm_20 Average (level 20 vs 0): 1.110 | MSH2.R.C Norm_20 Average (level 20 vs 0): 0.939 | MSH6.R.C Norm_20 Average (level 20 vs 0): 1.329 | MSI2.R.C Norm_20 Average (level 20 vs 0): 1.187 | MTCO1.M.V Norm_20 Average (level 20 vs 0): 1.135 | MTSS1.M.C Norm_20 Average (level 20 vs 0): 0.937 | Mcl.1.R.V Norm_20 Average (level 20 vs 0): 0.754 | MelanA.R.C Norm_20 Average (level 20 vs 0): 1.025 | Melanoma.gp100.R.C Norm_20 Average (level 20 vs 0): 1.012
